Data from US11439641B2, “Pyrimidine JAK inhibitors for the treatment of skin diseases” (THERAVANCE BIOPHARMA R&D IP, LLC, priority 2019, dated 2022).

Key:
Aqueous Solubility Assay = conditions: PBS buffer pH 7.4; maximum upper limit 1,000 μM
Description: Assay 5: Aqueous Solubility Assay
The purpose of this assay was to quantify the solubility of test compounds in pH 4 and pH 7.4 PBS buffers. The assay required 40 μL of 10 mM DMSO test compound solution per desired buffer in addition to 20 μL required to make a test standard. For example, to test a compound in both buffers, 100 μL (2*40 μL+20 μL) of 10 mM DMSO compound stock solution was required.
The standard was created by diluting 20 μL of 10 mM DMSO compound stock solution into 180 μL of methanol and was shaken for five minutes to ensure solution uniformity. […] This 1,000 μM solution was run on an Agilent 1260 LC-MS system by injecting 2 μL in order to obtain the peak area. For the test solutions, 40 μL of 10 mM DMSO compound stock solution, per PBS buffer condition, were dried down into a powder overnight. Once in powder form, 400 μL of the desired PBS buffer was added to the powder and allowed to shake vigorously for four hours. The maximum theoretical concentration for this sample solution was 1,000 μM. After four hours of shaking, the samples were centrifuged for 10 minutes at 3,000 RPM before injecting 2 μL on the same Agilent 1260 LC-MS system to obtain the peak area.
In Table 6 below, A represents a value above 500, B represents a value between 250 and 500, C represents a value between 50 and 250, D represents a value between 10 and 50, and E represents a value below 10.

JAK1 = JAK1 (Homo sapiens (Human), UniProt P23458); test: Biochemical JAK and Tyk2 Kinase Assays (LanthaScreen), JAK1; conditions: 25 μM ATP (Km); pIC50 converted to pKi by Cheng-Prusoff
Description: (§1) Assay 1: Biochemical JAK and Tyk2 Kinase Assays
(§2) A panel of four LanthaScreen JAK biochemical assays (JAK1, 2, 3 and Tyk2) were carried in a common kinase reaction buffer (50 mM HEPES, pH 7.5, 0.01% Brij-35, 10 mM MgCl2, and 1 mM EGTA). Recombinant GST-tagged JAK enzymes and a GFP-tagged STAT1 peptide substrate were obtained from Life Technologies.
(§3) Serially or discretely diluted compounds were pre-incubated with each of the four JAK enzymes and the substrate in white 384-well microplates (Corning) at ambient temperature for 1 h. ATP was subsequently added to initiate the kinase reactions in 10 μL total volume, with 1% DMSO. The final enzyme concentrations for JAK1, 2, 3 and Tyk2 are 4.2 nM, 0.1 nM, 1 nM, and 0.25 nM respectively; the corresponding Km ATP concentrations used are 25 μM, 3 μM, 1.6 μM, and 10 μM; while the substrate concentration is 200 nM for all four assays. Kinase reactions were allowed to proceed for 1 hour at ambient temperature before a 10 μL preparation of EDTA (10 mM final concentration) and Tb-anti-pSTAT1 (pTyr701) antibody (Life Technologies, 2 nM final concentration) in TR-FRET dilution buffer (Life Technologies) was added. The plates were allowed to incubate at ambient temperature for 1 h before being read on the EnVision reader (Perkin Elmer). Emission ratio signals (520 nm/495 nm) were recorded and utilized to calculate the percent inhibition values based on DMSO and background controls.
(§4) For dose-response analysis, percent inhibition data were plotted vs. compound concentrations, and IC50 values were determined from a 4-parameter robust fit model with the Prism software (GraphPad Software). Results were expressed as pIC50 (negative logarithm of IC50) and subsequently converted to pKi (negative logarithm of dissociation constant, Ki) using the Cheng-Prusoff equation.

JAK3 = JAK3 (Homo sapiens (Human), UniProt P52333); test: Biochemical JAK and Tyk2 Kinase Assays (LanthaScreen), JAK3; conditions: 1.6 μM ATP (Km); pIC50 converted to pKi by Cheng-Prusoff
Description: as §1, §2, §3, §4

[1] = Solubility Assay in Organic Excipients; conditions: maximum upper limit 20,000 μM; for Solubility in MCT (mg/mL): medium chain triglycerides (MCT)
[2] = test system: IL-2 stimulated pSTAT5 in Tall-1 T cells; test: Inhibition of IL-2 Stimulated pSTAT5 in Tall-1 T Cells; type: cell-based; conditions: Tall-1 human T cell line, IL-2 300 ng/mL, AlphaLisa
Description: Assay 2: Inhibition of IL-2 Stimulated pSTAT5 in Tall-1 T Cells
The potency of test compounds for inhibition of interleukin-2 (IL-2) stimulated STATS phosphorylation was measured in the Tall-1 human T cell line (DSMZ) using AlphaLisa. Because IL-2 signals through JAK1/3, this assay provides a measure of JAK1/3 cellular potency.
Phosphorylated STATS was measured via the AlphaLISA SureFire Ultra pSTAT5 (Tyr694/699) kit (PerkinElmer). Human T cells from the Tall-1 cell line were cultured in a 37° C., 5% CO2 humidified incubator in RPMI (Life Technologies) supplemented with 15% Heat Inactivated Fetal Bovine Serum (FBS, Life Technologies), 2 mM Glutamax (Life Technologies), 25 mM HEPES (Life Technologies) and 1× Pen/Strep (Life Technologies). Compounds were serially diluted in DMSO and dispensed acoustically to empty wells. Assay media (phenol red-free DMEM (Life Technologies) supplemented with 10% FBS (ATCC)) was dispensed (4 μL/well) and plates shaken at 900 rpm for 10 mins. Cells were seeded at 45,000 cells/well in assay media (4 μL/well), and incubated at 37° C., 5% CO2 for 1 hour, followed by the addition of IL-2 (R&D Systems; final concentration 300 ng/mL) in pre-warmed assay media (4 μL) for 30 minutes. After cytokine stimulation, cells were lysed with 6 ul of 3× AlphaLisa Lysis Buffer (PerkinElmer) containing 1× PhosStop and Complete tablets (Roche). The lysate was shaken at 900 rpm for 10 minutes at room temperature (RT). Phosphorylated STATS was measured via the pSTAT5 AlphaLisa kit (PerkinElmer). Freshly prepared acceptor bead mixture was dispensed onto lysate (51) under green filtered <100 lux light. Plates were shaken at 900 rpm for 2 mins, briefly spun down, and incubated for 2 hrs at RT in the dark. Donor beads were dispensed (5 μL) under green filtered <100 lux light. Plates were shaken at 900 rpm for 2 minutes, briefly spun down, and incubated overnight at RT in the dark. Luminescence was measured with excitation at 689 nm and emission at 570 nm using an EnVision plate r reader (PerkinElmer) under green filtered <100 lux light.
To determine the inhibitory potency of test compounds in response to IL-2, the average emission intensity of beads bound to pSTAT5 was measured in a human T cell line. IC50 values were determined from analysis of the inhibition curves of signal intensity versus compound concentration. Data are expressed as pIC50 (negative decadic logarithm IC50) values (mean±standard deviation).

JAK3, sequence (P52333 whole entry): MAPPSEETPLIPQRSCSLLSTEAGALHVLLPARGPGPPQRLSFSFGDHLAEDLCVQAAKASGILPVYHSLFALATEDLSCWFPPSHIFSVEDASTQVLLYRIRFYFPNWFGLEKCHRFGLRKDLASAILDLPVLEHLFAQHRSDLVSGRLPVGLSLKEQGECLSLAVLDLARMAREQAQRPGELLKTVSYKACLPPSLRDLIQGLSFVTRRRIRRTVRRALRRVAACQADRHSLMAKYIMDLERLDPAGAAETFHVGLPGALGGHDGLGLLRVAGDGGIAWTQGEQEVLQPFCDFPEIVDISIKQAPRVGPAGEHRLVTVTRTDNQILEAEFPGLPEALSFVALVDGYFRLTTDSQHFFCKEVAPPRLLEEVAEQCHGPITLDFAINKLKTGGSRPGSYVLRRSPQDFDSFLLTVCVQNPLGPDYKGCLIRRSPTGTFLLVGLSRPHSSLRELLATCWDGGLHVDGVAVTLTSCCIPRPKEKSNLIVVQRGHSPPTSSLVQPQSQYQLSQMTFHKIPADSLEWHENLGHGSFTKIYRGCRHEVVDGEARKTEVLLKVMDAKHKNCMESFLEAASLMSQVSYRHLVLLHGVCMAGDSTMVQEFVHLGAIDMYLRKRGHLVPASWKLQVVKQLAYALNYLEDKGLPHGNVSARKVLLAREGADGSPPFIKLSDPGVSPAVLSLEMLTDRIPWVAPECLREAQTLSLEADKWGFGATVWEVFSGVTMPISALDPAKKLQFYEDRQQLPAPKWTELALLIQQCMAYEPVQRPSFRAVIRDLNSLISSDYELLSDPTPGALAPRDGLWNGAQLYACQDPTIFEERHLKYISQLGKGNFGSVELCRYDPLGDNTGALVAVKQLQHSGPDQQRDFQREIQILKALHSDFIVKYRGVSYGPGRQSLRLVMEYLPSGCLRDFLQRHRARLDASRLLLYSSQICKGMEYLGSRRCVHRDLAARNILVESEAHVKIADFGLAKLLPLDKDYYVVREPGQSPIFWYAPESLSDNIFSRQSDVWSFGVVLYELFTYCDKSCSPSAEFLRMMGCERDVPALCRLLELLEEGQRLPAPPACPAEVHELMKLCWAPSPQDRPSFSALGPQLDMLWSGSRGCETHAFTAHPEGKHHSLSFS
JAK1, sequence (P23458 whole entry): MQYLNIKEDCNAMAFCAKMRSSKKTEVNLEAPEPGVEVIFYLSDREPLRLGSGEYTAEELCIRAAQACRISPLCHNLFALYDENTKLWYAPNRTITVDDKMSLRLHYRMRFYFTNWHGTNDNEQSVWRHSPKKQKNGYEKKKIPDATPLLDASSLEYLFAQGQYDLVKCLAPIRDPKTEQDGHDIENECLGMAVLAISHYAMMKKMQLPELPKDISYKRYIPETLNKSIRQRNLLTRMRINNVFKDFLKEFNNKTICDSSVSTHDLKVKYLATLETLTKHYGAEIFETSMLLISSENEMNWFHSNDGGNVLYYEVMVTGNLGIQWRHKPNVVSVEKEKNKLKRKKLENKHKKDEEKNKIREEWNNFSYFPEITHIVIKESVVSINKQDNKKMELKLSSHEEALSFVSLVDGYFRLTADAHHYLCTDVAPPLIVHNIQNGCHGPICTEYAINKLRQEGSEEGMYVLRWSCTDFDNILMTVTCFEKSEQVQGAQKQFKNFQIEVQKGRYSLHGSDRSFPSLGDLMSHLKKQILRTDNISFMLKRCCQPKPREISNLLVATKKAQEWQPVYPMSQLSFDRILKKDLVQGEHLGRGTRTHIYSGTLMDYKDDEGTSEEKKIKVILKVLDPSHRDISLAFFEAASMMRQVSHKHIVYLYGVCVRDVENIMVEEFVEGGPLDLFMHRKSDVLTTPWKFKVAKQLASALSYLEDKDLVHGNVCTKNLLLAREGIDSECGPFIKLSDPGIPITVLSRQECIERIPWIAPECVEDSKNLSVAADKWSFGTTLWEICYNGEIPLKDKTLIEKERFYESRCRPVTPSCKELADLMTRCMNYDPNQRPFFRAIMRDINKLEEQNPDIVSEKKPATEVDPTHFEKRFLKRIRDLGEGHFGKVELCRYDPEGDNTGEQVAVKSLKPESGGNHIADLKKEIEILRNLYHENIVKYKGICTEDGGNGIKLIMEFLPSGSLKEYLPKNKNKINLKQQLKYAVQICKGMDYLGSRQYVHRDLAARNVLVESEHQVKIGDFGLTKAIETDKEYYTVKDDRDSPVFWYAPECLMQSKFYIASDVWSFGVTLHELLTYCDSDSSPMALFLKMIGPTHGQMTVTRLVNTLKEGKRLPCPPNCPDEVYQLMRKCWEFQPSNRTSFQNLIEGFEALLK

Compound | Solubility at PH 7.4 (μmol) (Aqueous Solubility Assay) | JAK 1 (pKi) (JAK1) | JAK 3 (pKi) (JAK3) | Solubility in PEG400 (mg/mL) [1] | Solubility in Diisopropyl adipate (mg/mL) [1] | Solubility in MCT (mg/mL) [1] | Solubility in Propylene glycol (mg/mL) [1] | Tall-1 IL2 pSTAT5 (pIC50) [2]
CCS(=O)(=O)N1[C@@H]2CCC[C@H]1C[C@H](N(C)c1nc(Nc3cc(C)[nH]n3)cc(O[C@H]3CCOC3)n1)C2 [Compound 33, N^2-((1R,3s,5S)-9-(ethylsulfonyl)-9-azabicyclo[3.3.1]nonan-3-yl)-N2-methyl-N4-(5-methyl-1H-pyrazol-3-yl)-6-(((S)-tetrahydrofuran-3-yl)oxy)pyrimidine-2,4-diamine] | D (D represents a value between 10 and 50) | A (A represents a pKi value ≥10 (Ki≤0.1 nM)) | B (B represents a pKi value between 9 and 10 (Ki between 1 nM and 0.1 nM)) | B (B represents a value between 5 and 10) | C (C represents a value below 5) | C (C represents a value below 5) | A (A represents a value above 10) | –
CCS(=O)(=O)N1[C@@H]2CCC[C@H]1C[C@H](N(C)c1nc(Nc3cc(C)[nH]n3)cc(O[C@@H]3CCOC3)n1)C2 [Compound 18, N^2-((1R,3s,5S)-9-(ethylsulfonyl)-9-azabicyclo[3.3.1]nonan-3-yl)-N2-methyl-N4-(5-methyl-1H-pyrazol-3-yl)-6-(((R)-tetrahydrofuran-3-yl)oxy)pyrimidine-2,4-diamine] | D (D represents a value between 10 and 50) | A (A represents a pKi value ≥10 (Ki≤0.1 nM)) | B (B represents a pKi value between 9 and 10 (Ki between 1 nM and 0.1 nM)) | B (B represents a value between 5 and 10) | B (B represents a value between 5 and 10) | C (C represents a value below 5) | B (B represents a value between 5 and 10) | –
CCC(=O)N1[C@@H]2CCC[C@H]1CC(N(C)c1nc(Nc3cc(C)[nH]n3)cc(OC3CCOC3)n1)C2 (stereo partly drawn) [Compound 46, 1-((1R,3s,5S)-3-(methyl(4-((5-methyl-1H-pyrazol-3-yl)amino)-6-((tetrahydrofuran-3-yl)oxy)pyrimidin-2-yl)amino)-9-azabicyclo[3.3.1]nonan-9-yl)propan-1-one] | D (D represents a value between 10 and 50) | A (A represents a pKi value ≥10 (Ki≤0.1 nM)) | B (B represents a pKi value between 9 and 10 (Ki between 1 nM and 0.1 nM)) | – | – | – | – | A (A represents a pIC50 value ≥8.0)
Cc1cc(Nc2cc(C3CCOC3)nc(N(C)[C@@H]3C[C@H]4CCC[C@@H](C3)N4C(=O)CC3CC3)n2)n[nH]1 (stereo partly drawn) [Compound 7, 2-cyclopropyl-1-((1R,3s,5S)-3-(methyl(4-((5-methyl-1H-pyrazol-3-yl)amino)-6-(tetrahydrofuran-3-yl)pyrimidin-2-yl)amino)-9-azabicyclo[3.3.1]nonan-9-yl)ethan-1-one] | E (E represents a value below 10) | A (A represents a pKi value ≥10 (Ki≤0.1 nM)) | C (C represents a pKi value between 8 and 9 (Ki between 10 nM and 1 nM)) | – | – | – | – | A (A represents a pIC50 value ≥8.0)
CCS(=O)(=O)N1[C@@H]2CCC[C@H]1C[C@H](N(C)c1nc(Nc3cc(C)[nH]n3)c(F)c(C3CCOC3)n1)C2 (stereo partly drawn) [Compound 44, N2-((1R,3s,5S)-9-(ethylsulfonyl)-9-azabicyclo[3.3.1]nonan-3-yl)-5-fluoro-N2-methyl-N4-(5-methyl-1H-pyrazol-3-yl)-6-(tetrahydrofuran-3-yl)pyrimidine-2,4-diamine] | E (E represents a value below 10) | A (A represents a pKi value ≥10 (Ki≤0.1 nM)) | C (C represents a pKi value between 8 and 9 (Ki between 10 nM and 1 nM)) | – | – | – | – | –
Cc1cc(Nc2cc(C3CCOCC3)nc(N(C)[C@@H]3C[C@H]4CCC[C@@H](C3)N4C(=O)CC3CC3)n2)n[nH]1 [Compound 4, 2-cyclopropyl-1-((1R,3s,5S)-3-(methyl(4-((5-methyl-1H-pyrazol-3-yl)amino)-6-(tetrahydro-2H-pyran-4-yl)pyrimidin-2-yl)amino)-9-azabicyclo[3.3.1]nonan-9-yl)ethan-1-one] | E (E represents a value below 10) | A (A represents a pKi value ≥10 (Ki≤0.1 nM)) | B (B represents a pKi value between 9 and 10 (Ki between 1 nM and 0.1 nM)) | C (C represents a value below 5) | C (C represents a value below 5) | C (C represents a value below 5) | C (C represents a value below 5) | –
Cc1cc(Nc2cc(OCC3COC3)nc(N(C)[C@@H]3C[C@H]4CCC[C@@H](C3)N4C(=O)CC3CC3)n2)n[nH]1 [Compound 40, 2-cyclopropyl-1-((1R,3s,5S)-3-(methyl(4-((5-methyl-1H-pyrazol-3-yl)amino)-6-(oxetan-3-ylmethoxy)pyrimidin-2-yl)amino)-9-azabicyclo[3.3.1]nonan-9-yl)ethan-1-one] | D (D represents a value between 10 and 50) | A (A represents a pKi value ≥10 (Ki≤0.1 nM)) | B (B represents a pKi value between 9 and 10 (Ki between 1 nM and 0.1 nM)) | – | – | – | – | A (A represents a pIC50 value ≥8.0)
Cc1cc(Nc2cc(C3CCCO3)nc(N(C)[C@@H]3C[C@H]4CCC[C@@H](C3)N4CC(=O)N3CCCC3)n2)n[nH]1 (stereo partly drawn) [Compound 16, 2-((1R,3s,5S)-3-(methyl(4-((5-methyl-1H-pyrazol-3-yl)amino)-6-(tetrahydrofuran-2-yl)pyrimidin-2-yl)amino)-9-azabicyclo[3.3.1]nonan-9-yl)-1-(pyrrolidin-1-yl)ethan-1-one] | A (A represents a value above 500) | A (A represents a pKi value ≥10 (Ki≤0.1 nM)) | C (C represents a pKi value between 8 and 9 (Ki between 10 nM and 1 nM)) | C (C represents a value below 5) | C (C represents a value below 5) | C (C represents a value below 5) | C (C represents a value below 5) | –
